According to ChEMBL document CHEMBL1201862, “PubChem BioAssay data set” (2004):
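Exposure lasted 48 hours, with cells grown in 96-well plates and compounds tested at five concentrations. GI50 marks 50% less growth.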 Active and inactive are the calls of the source. Rule as the data show it: active = GI50 up to about 1.1 µM and inactive = higher.

Experiments:
Assay in all cases: growth of human tumour cells (NCI), 48 h
CAKI-1 = system: CAKI-1
DU-145 = system: DU-145
K562 = system: K562
M14 = system: M14
MCF7 = system: MCF7
MDA-MB-231 = system: MDA-MB-231
MOLT-4 = system: MOLT-4
NCI-H226 = system: NCI-H226
NCI-H23 = system: NCI-H23
NCI-H460 = system: NCI-H460
OVCAR-5 = system: OVCAR-5
OVCAR-8 = system: OVCAR-8
SF-268 = system: SF-268
SK-OV-3 = system: SK-OV-3
SNB-75 = system: SNB-75
SW-620 = system: SW-620
TK-10 = system: TK-10
UACC-62 = system: UACC-62
MDA-N = system: MDA-N

SMILES	GI50 (CAKI-1)	GI50 (DU-145)	GI50 (K562)	GI50 (M14)	GI50 (MCF7)	GI50 (MDA-MB-231)	GI50 (MOLT-4)	GI50 (NCI-H226)	GI50 (NCI-H23)	GI50 (NCI-H460)	GI50 (OVCAR-5)	GI50 (OVCAR-8)	GI50 (SF-268)	GI50 (SK-OV-3)	GI50 (SNB-75)	GI50 (SW-620)	GI50 (TK-10)	GI50 (UACC-62)	GI50 (MDA-N)
O=C1c2ccccc2/N=C(/c2cc3c(cc2Cl)Sc2nccn2S3(=O)=O)OS(=O)(=O)N1c1ccccc1	35.7 µM (inactive)	37.4 µM (inactive)	35.2 µM (inactive)	16.9 µM (inactive)	24.6 µM (inactive)	22.7 µM (inactive)	9.33 µM (inactive)	39.4 µM (inactive)	22.4 µM (inactive)	29.8 µM (inactive)	19.4 µM (inactive)	17.4 µM (inactive)	37.3 µM (inactive)	36.3 µM (inactive)	7.4 µM (inactive)	24.9 µM (inactive)	24.4 µM (inactive)	20.5 µM (inactive)	–
CC(C)(C)OC(=O)N1CC(O)O[C@H](c2ccccc2)[C@@H]1c1ccccc1 (stereo partly specified)	44.9 µM (inactive)	25.5 µM (inactive)	33.4 µM (inactive)	16.4 µM (inactive)	–	28.2 µM (inactive)	30.4 µM (inactive)	20.6 µM (inactive)	15.9 µM (inactive)	–	17.9 µM (inactive)	29.7 µM (inactive)	25.5 µM (inactive)	14.9 µM (inactive)	24.8 µM (inactive)	16.6 µM (inactive)	17.8 µM (inactive)	14.3 µM (inactive)	28.2 µM (inactive)
COc1cc(/C=N/NC(=O)c2c(Cl)c(Cl)c(Cl)c(Cl)c2-c2nc3ccccc3[nH]2)ccc1O	25.3 µM (inactive)	19.9 µM (inactive)	20.4 µM (inactive)	24.7 µM (inactive)	16.9 µM (inactive)	–	18 µM (inactive)	21.3 µM (inactive)	19.9 µM (inactive)	19.1 µM (inactive)	27.9 µM (inactive)	31.1 µM (inactive)	32.5 µM (inactive)	35.5 µM (inactive)	22.9 µM (inactive)	34.4 µM (inactive)	–	15.8 µM (inactive)	24 µM (inactive)
Fc1ccc(OCc2ccc3nc(-c4ccccc4)c(Cl)nc3c2)cc1	22.1 µM (inactive)	30.5 µM (inactive)	–	67.8 µM (inactive)	53.1 µM (inactive)	20 µM (inactive)	21.6 µM (inactive)	–	25.3 µM (inactive)	30.1 µM (inactive)	41.7 µM (inactive)	36.4 µM (inactive)	26 µM (inactive)	–	16.7 µM (inactive)	77.3 µM (inactive)	31.8 µM (inactive)	28.8 µM (inactive)	72.4 µM (inactive)
C=CCCC(=O)N1CCC(C(=O)OCC)C1=O (stereo unspecified)	> 100 µM (inactive)	> 100 µM (inactive)	–	> 100 µM (inactive)	–	> 100 µM (inactive)	> 100 µM (inactive)	90.8 µM (inactive)	> 100 µM (inactive)	–	> 100 µM (inactive)	> 100 µM (inactive)	> 100 µM (inactive)	> 100 µM (inactive)	> 100 µM (inactive)	> 100 µM (inactive)	> 100 µM (inactive)	> 100 µM (inactive)	–
Cn1c2ccccc2n2c3ccccc3c3nnc(N)c-3c12	76.4 µM (inactive)	33.7 µM (inactive)	> 65.8 µM (inactive)	> 95.3 µM (inactive)	19.2 µM (inactive)	55 µM (inactive)	7.67 µM (inactive)	> 93.1 µM (inactive)	17.5 µM (inactive)	> 60.4 µM (inactive)	> 100 µM (inactive)	8.18 µM (inactive)	0.589 µM (active)	> 95.1 µM (inactive)	1.95 µM (inactive)	57.8 µM (inactive)	> 100 µM (inactive)	73.6 µM (inactive)	–
O=C1Nc2ccccc2/C1=C1/Nc2ccccc2/C1=N/OCCO	0.175 µM (active)	0.713 µM (active)	> 100 µM (inactive)	2.39 µM (inactive)	1.86 µM (inactive)	–	0.8 µM (active)	> 100 µM (inactive)	0.656 µM (active)	0.824 µM (active)	> 100 µM (inactive)	> 100 µM (inactive)	> 100 µM (inactive)	0.299 µM (active)	> 100 µM (inactive)	14 µM (inactive)	9.73 µM (inactive)	10.5 µM (inactive)	23 µM (inactive)
CC(C)C/C=C/C1=NN(c2cccc(S(=O)(=O)O)c2)C2(C1)SCC(=O)N2c1nc2ccccc2s1 (stereo unspecified)	66.8 µM (inactive)	44.2 µM (inactive)	51.4 µM (inactive)	> 100 µM (inactive)	30.5 µM (inactive)	38.9 µM (inactive)	33.8 µM (inactive)	29.2 µM (inactive)	99.5 µM (inactive)	38 µM (inactive)	> 100 µM (inactive)	66.2 µM (inactive)	37.2 µM (inactive)	–	97.5 µM (inactive)	96.6 µM (inactive)	34.4 µM (inactive)	48.4 µM (inactive)	–
O=C1CCSC(=S)N1c1ccc(Br)c(Cl)c1	29.6 µM (inactive)	43.8 µM (inactive)	32.9 µM (inactive)	58.1 µM (inactive)	17.9 µM (inactive)	29 µM (inactive)	37.4 µM (inactive)	27.3 µM (inactive)	53.2 µM (inactive)	21.8 µM (inactive)	43.9 µM (inactive)	30.5 µM (inactive)	18.5 µM (inactive)	37.6 µM (inactive)	25.5 µM (inactive)	28.1 µM (inactive)	30.2 µM (inactive)	23.6 µM (inactive)	–
COC(=O)C12C3C4(C(=O)OC)C1C1(C(=O)OC)C2C3(C(=O)OC)C41C(=O)N(C(C)C)C(C)C (stereo unspecified)	> 100 µM (inactive)	> 100 µM (inactive)	> 100 µM (inactive)	> 100 µM (inactive)	> 100 µM (inactive)	> 100 µM (inactive)	> 100 µM (inactive)	–	> 100 µM (inactive)	> 100 µM (inactive)	> 100 µM (inactive)	> 100 µM (inactive)	> 100 µM (inactive)	–	> 100 µM (inactive)	> 100 µM (inactive)	> 100 µM (inactive)	> 100 µM (inactive)	> 100 µM (inactive)
CN(C)c1nc2n(CCO)c(-c3ccccc3)c(-c3ccccc3)nc-2c(=O)n1	> 100 µM (inactive)	> 100 µM (inactive)	> 100 µM (inactive)	> 100 µM (inactive)	–	> 100 µM (inactive)	> 100 µM (inactive)	> 100 µM (inactive)	> 100 µM (inactive)	> 100 µM (inactive)	> 100 µM (inactive)	> 100 µM (inactive)	> 100 µM (inactive)	> 100 µM (inactive)	21.7 µM (inactive)	> 100 µM (inactive)	> 100 µM (inactive)	> 100 µM (inactive)	> 100 µM (inactive)
CC(C)(C)OC(=O)NCC(CNC(=O)OC(C)(C)C)C(N)=O	> 100 µM (inactive)	> 100 µM (inactive)	> 100 µM (inactive)	> 100 µM (inactive)	> 100 µM (inactive)	> 100 µM (inactive)	> 100 µM (inactive)	> 100 µM (inactive)	> 100 µM (inactive)	> 100 µM (inactive)	> 100 µM (inactive)	> 100 µM (inactive)	> 100 µM (inactive)	> 100 µM (inactive)	–	> 100 µM (inactive)	> 100 µM (inactive)	> 100 µM (inactive)	–
COc1cc(OC)c(-c2ccc(OCc3ccccc3)c3c(OC)cc(C)cc23)c2c1C(C)=N[C@H](C)C2	> 12.5 µM (inactive)	2.38 µM (inactive)	1.55 µM (inactive)	2.03 µM (inactive)	–	2.33 µM (inactive)	2.29 µM (inactive)	2.64 µM (inactive)	2.36 µM (inactive)	2.1 µM (inactive)	2.52 µM (inactive)	1.96 µM (inactive)	1.78 µM (inactive)	2.19 µM (inactive)	2.29 µM (inactive)	2.45 µM (inactive)	1.8 µM (inactive)	2.1 µM (inactive)	2.15 µM (inactive)
CCCCCCCCCCCCOP(=O)(O)OP(=O)(O)OCC1OC(n2cc(C)c(=O)[nH]c2=O)CC1O (stereo unspecified)	> 100 µM (inactive)	–	> 100 µM (inactive)	> 100 µM (inactive)	> 100 µM (inactive)	> 100 µM (inactive)	> 100 µM (inactive)	> 100 µM (inactive)	> 100 µM (inactive)	> 100 µM (inactive)	> 100 µM (inactive)	> 100 µM (inactive)	> 100 µM (inactive)	> 100 µM (inactive)	> 100 µM (inactive)	> 100 µM (inactive)	> 100 µM (inactive)	–	> 100 µM (inactive)
Nc1ncnc2c1nc(Cl)n2C1OC2COP(=O)(O)OC2C1O (stereo unspecified)	6.04 µM (inactive)	6.67 µM (inactive)	1.01 µM (active)	6.25 µM (inactive)	3.49 µM (inactive)	–	2.81 µM (inactive)	3.41 µM (inactive)	7.24 µM (inactive)	4 µM (inactive)	23.3 µM (inactive)	3.9 µM (inactive)	> 51.8 µM (inactive)	3.01 µM (inactive)	11.3 µM (inactive)	3.47 µM (inactive)	6.49 µM (inactive)	10.4 µM (inactive)	6.43 µM (inactive)
O=[N+]([O-])c1cc(-c2nnc(C34CC5CC(CC(C5)C3)C4)o2)cc([N+](=O)[O-])c1	> 100 µM (inactive)	33 µM (inactive)	21 µM (inactive)	21.5 µM (inactive)	–	39.2 µM (inactive)	> 100 µM (inactive)	83.4 µM (inactive)	> 100 µM (inactive)	32.4 µM (inactive)	> 100 µM (inactive)	25.5 µM (inactive)	86.1 µM (inactive)	> 100 µM (inactive)	74.6 µM (inactive)	15.4 µM (inactive)	–	86.9 µM (inactive)	24.4 µM (inactive)
